These results are taken from paper PMC7177456, “A Peptidomimetic Fluorescent Probe to Detect the Trypsin β2 Subunit of the Human 20S Proteasome” (International Journal of Molecular Sciences, 2020).

As usually defined, the kcat/Km is the second-order rate constant that governs catalysis at low substrate concentration. By Km is commonly meant the concentration of substrate that gives half-maximal velocity. As usually defined, the kcat is the maximal rate divided by the concentration of active sites.

The target of test [1] is T1, human 20S proteasome, trypsin-like (β2) subunit (Homo sapiens, UniProt P49720+Q99436).
T1 construct: purchased Boston Biochem (Cambridge, MA, USA)
As to the kind of experiment: Kinetic parameters of substrate 1 with human 20S proteasome (allosteric fit). Type of test: biochemical. To be noted: for kcat/Km: calculated from the kcat and Km values; for Km / kcat: 20S proteasome 1.07 × 10^−9 M. The method, then: For enzymatic studies, the human 20S proteasome, 26S proteasome, and 20S immunoproteasome were purchased from Boston Biochem (Cambridge, MA, USA). The 20S proteasome concentration for library deconvolution was in the nanomolar range, and this proteasome entity was used for the main study. Deconvolution of the peptide libraries was performed using the iterative solution method. Dimethyl sulfoxide (DMSO) was used as a solvent for preparation of the stock solution (5 mg/mL) for each lyophilized sub-library. This stock solution was diluted ten times using an assay buffer (50 mM Tris/HCl buffer (pH 8.2)) for the 20S and 20Si proteasome, and for 26S, the buffer was supplemented with 40 mM KCl, 2 mM EDTA, 1 mM DTT, 100 µM ATP, and 50 µg/mL bovine serum albumin (BSA). The volume composition of each well of the 96-well plate was: 20 µL library, 160 µL assay buffer, and 20 µL 20S proteasome solution at a concentration of 1.07 × 10^−9 M. Absorbance or fluorescence measurements were performed on a FluoroStar OMEGA multimode microplate reader (BMG, Ortenberg, Germany). Absorbance increases were monitored at 410 nm. The excitation and emission wavelengths were 320 and 450 nm respectively, for the ABZ/ANB. Enzymatic hydrolysis of the peptide was performed in the assay buffer at 37 °C and continued over 60 min.
The procedures to determine the kinetic constants Km and kcat are described below. Increasing concentrations of substrate 1 ranged from 1 × 10^−6 to 2 × 10^−5 M. In parallel, a kinetic assay with the artificial activator SDS at 0.01% was also performed. The data were fitted to an allosteric plot using GraphPad prism v6.0 (GraphPad Software Inc., La Jolla, CA, USA). The specificity constants (kcat/ Km) were calculated from the kcat and Km values. Measurements were performed using a 20S proteasome concentration of 1.07 × 10^−9 M. Three to five measurements were performed for each compound dilution (the systematic error, defined as the standard deviation, never surpassed 20%). The initial hydrolysis rates were used as the amount of enzymatic activity for the tested compounds. All kinetic study details and kinetic parameters have been described elsewhere.

Test [2] concerns 20S proteasome. As to the kind of experiment: Titration: 20S proteasome assay detection limit. The class given is biochemical, human. Conditions: substrate 1.34 × 10^−5 M; 20S proteasome 0.05 to 2 nM; 37 °C, 30 min; 320/450 nm; triplicate. The method, then: A total of 160 µL assay buffer was added to each well of the 96-well plate, containing a constant substrate concentration (1.34 × 10^−5 M) (20 µL), followed by 20 µL of the 20S proteasome, with concentrations ranging from 0.05 to 2 nM. In total, seven different concentrations were used. The excitation and emission wavelengths were 320 and 450 nm, respectively. Enzymatic hydrolysis of the peptide was performed in the previously described buffer at 37 °C and continued over 30 min. A linear fragment of the curve was chosen, and the slope was calculated for each system. All measurements were performed in triplicate.

The mark [3] stands for this setting: in the presence of artificial activator SDS 0.01%, pH 8.2, 37 °C.

Consider “ABZ–Dap(O2(Cbz))–Dap(GO1)–Dap(O2(Cbz))–Arg–ANB–NH2 [substrate 1]”, for which the kcat/Km in test [1] (in the presence of artificial activator SDS 0.01%) was 3.23e+07 M⁻¹ s⁻¹; in test [1] (substrate alone, without SDS), 7.61e+07 M⁻¹ s⁻¹. Also, the Km is 6.84 ± 0.12 µM in test [1] (setting [3]) and 3.22 ± 0.02 µM in test [1] (substrate alone, without SDS, 50 mM Tris/HCl pH 8.2, 37 °C, substrate 1 × 10^−6 to 2 × 10^−5 M, ABZ/ANB fluorescence 320/450 nm, three to five measurements). The kcat was 221 ± 18 s⁻¹ in test [1] (setting [3]) and 245 ± 21 s⁻¹ in test [1] (substrate alone, without SDS, 50 mM Tris/HCl pH 8.2, 37 °C). The “type of cleavage kinetics” value in test [1] (substrate alone, characteristic for allosteric enzymes) is reported as “sigmoidal kinetics”. Besides, in test [2], the “20S proteasome assay detection limit” value was 10^−11 M.
